Measurements taken from patent US12054487B2, “Muscarinic acetylcholine M1 receptor antagonists” (Contineum Therapeutics, Inc., priority 2018, dated 2024).

Tests used:
Assay type in all cases: cell-based
human M1 receptor = target: T1, human M1 receptor (Homo sapiens, UniProt P11229); test: In vitro functional assay of muscarinic acetylcholine receptor activity (aequorin calcium flux, antagonist mode vs EC80 acetylcholine), M1; conditions: CHO-K1 cells stably expressing human M1 receptor with Aequorin; decrease in EC80 acetylcholine response
T1 construct: host or cells: CHO-K1
T1 sequence (P11229 1-460): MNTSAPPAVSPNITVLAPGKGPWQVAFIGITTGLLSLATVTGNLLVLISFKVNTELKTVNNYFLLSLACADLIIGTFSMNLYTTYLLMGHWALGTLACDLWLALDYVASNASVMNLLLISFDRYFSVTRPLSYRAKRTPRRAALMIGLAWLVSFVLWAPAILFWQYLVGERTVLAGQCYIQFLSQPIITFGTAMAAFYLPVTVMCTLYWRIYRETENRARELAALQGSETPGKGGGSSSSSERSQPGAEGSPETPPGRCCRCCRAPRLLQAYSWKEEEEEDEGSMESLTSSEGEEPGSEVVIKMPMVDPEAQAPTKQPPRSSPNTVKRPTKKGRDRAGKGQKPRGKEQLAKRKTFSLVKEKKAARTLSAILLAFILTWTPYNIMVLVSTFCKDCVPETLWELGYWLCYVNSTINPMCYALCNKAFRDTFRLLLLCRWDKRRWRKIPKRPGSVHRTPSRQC
Procedure: (§1) CHO-K1 cells stably expressing human M1 receptor with Aequorin (Perkin Elmer) were grown in F12 media, 10% FBS with 0.4 mg/mL geneticin and […]. Cells were grown to confluence and frozen down to be assayed at a later date. On the day of the experiment cells were thawed in a 37° C. water bath, resuspended in DMEM/HAM's F12 with HEPES (Invitrogen)+0.1% protease-free BSA (assay buffer), and spun down to remove freezing media. After centrifugation, supernatant was removed and 12 mL of assay buffer was added. Coelenterazine h (Promega) was added to the cells at a final concentration of 5 uM and incubated for 4 hours at room temperature in the dark. Compound master plate-96 deep well (Corning) were formatted in a 8-point DRC in assay buffer with 0.2% DMSO at a starting concentration of 60 uM (2×). After 4 hours of incubation, cells were plated at a concentration of 5×10^5 cells/well in 96 well white-walled, tissue culture-treated, clear-bottom plates (VWR). Compounds were added to the daughter plate, and cells plus compound were incubated at room temperature for 30 minutes in the dark.
(§2) Calcium flux was measured using the FlexStation 3 (Molecular Devices). To measure the antagonist dose-response, the EC80 of Acetylcholine was injected to the daughter plate using the automated compound transfer function of the Flex Station, and the increase in luminescence was measured over time. Antagonist activity was analyzed as a concentration dependent decrease in the EC80 acetylcholine response. Dose response curves were generated using Prism (GraphPad Software). The IC50 of the compounds was calculated from the dose response curve.

M3 = M3 (Homo sapiens, UniProt P20309); test: In vitro functional assay of muscarinic acetylcholine receptor activity, M3; conditions: antagonist activity; M3 method not separately described
Procedure: [The procedure below names another target; the source lists this target under the same test.] as §1, §2

M2 = target: T2, M2 (Homo sapiens, UniProt P08172); test: In vitro functional assay of muscarinic acetylcholine receptor activity, M2; conditions: antagonist activity; M2 method not separately described
T2 sequence (P08172 1-466): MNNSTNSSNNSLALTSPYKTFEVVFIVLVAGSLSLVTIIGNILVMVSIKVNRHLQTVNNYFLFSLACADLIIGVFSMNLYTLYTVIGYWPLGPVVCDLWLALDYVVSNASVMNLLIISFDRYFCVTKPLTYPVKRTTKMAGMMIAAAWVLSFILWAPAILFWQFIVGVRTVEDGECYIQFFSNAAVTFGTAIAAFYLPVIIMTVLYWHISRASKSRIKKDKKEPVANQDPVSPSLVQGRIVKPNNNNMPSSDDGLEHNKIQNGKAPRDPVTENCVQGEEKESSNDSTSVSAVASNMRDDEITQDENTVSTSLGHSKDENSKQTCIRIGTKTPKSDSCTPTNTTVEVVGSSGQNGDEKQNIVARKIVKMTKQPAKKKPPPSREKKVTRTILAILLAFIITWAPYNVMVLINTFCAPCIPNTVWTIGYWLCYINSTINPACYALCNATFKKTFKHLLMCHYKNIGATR
Procedure: [The procedure below names another target; the source lists this target under the same test.] as §1, §2

Sequence of M3 (P20309 whole entry): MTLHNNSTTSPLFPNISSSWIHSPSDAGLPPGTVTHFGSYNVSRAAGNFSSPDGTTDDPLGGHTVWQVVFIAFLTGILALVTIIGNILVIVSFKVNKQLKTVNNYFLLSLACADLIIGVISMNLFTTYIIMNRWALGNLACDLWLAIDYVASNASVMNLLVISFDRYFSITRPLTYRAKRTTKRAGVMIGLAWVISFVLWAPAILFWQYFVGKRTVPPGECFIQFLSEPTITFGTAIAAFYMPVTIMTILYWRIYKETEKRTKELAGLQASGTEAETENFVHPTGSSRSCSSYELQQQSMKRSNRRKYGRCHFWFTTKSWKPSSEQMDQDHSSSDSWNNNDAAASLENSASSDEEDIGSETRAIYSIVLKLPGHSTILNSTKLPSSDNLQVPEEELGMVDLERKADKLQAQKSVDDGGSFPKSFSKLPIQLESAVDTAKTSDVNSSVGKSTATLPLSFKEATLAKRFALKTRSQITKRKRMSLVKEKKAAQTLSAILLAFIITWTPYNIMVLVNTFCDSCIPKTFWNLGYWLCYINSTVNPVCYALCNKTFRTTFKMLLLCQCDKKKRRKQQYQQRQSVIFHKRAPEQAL

IC50 (human M1 receptor)	IC50 (M3)	IC50 (M2)	SMILES
< 100 nM	100 to 1000 nM	< 100 nM	O=C1[C@@H](CCCc2cccc3ncnn23)C[C@H]2CN(c3ccc(C4CC4)cn3)CCN12 [Example 45, (8aS)-7-(3-([1,2,4]triazolo[1,5-a]pyridin-5-yl)propyl)-2-(5-cyclopropylpyridin-2-yl)hexahydropyrrolo[1,2-a]pyrazin-6(2H)-one]
100 to 1000 nM	> 10000 nM	> 10000 nM	O=C1[C@@H](CCCc2cccc3ncnn23)C[C@H]2CN(c3ccc(F)cc3)CCN12 [Example 47, (7S,8aS)-7-(3-([1,2,4]triazolo[1,5-a]pyridin-5-yl)propyl)-2-(4-fluorophenyl)hexahydropyrrolo[1,2-a]pyrazin-6(2H)-one]
< 100 nM	1000 to 10000 nM	1000 to 10000 nM	Cc1ccc(N2CCN3C(=O)[C@@H](CCCc4cccc5ncnn45)C[C@H]3C2)nn1 [Example 48, (7S,8aS)-7-(3-([1,2,4]triazolo[1,5-a]pyridin-5-yl)propyl)-2-(6-methylpyridazin-3-yl)hexahydropyrrolo[1,2-a]pyrazin-6(2H)-one]
< 100 nM	1000 to 10000 nM	1000 to 10000 nM	COCc1ccc(N2CCN3C(=O)[C@@H](CCCc4cccc5ncnn45)C[C@H]3C2)nc1 [Example 49, (7S,8aS)-7-(3-([1,2,4]triazolo[1,5-a]pyridin-5-yl)propyl)-2-(5-(methoxymethyl)pyridin-2-yl)hexahydropyrrolo[1,2-a]pyrazin-6(2H)-one]
100 to 1000 nM	1000 to 10000 nM	100 to 1000 nM	N#Cc1cc(N2CCN3C(=O)[C@@H](CCCc4cccc5ncnn45)C[C@H]3C2)ccc1F [Example 52, 5-((7S,8aS)-7-(3-([1,2,4]triazolo[1,5-a]pyridin-5-yl)propyl)-6-oxohexahydropyrrolo [1,2-a]pyrazin-2(1H)-yl)-2-fluorobenzonitrile]
< 100 nM	> 10000 nM	1000 to 10000 nM	O=C1[C@@H](CCCc2cccc3ncnn23)C[C@H]2CN(c3ccc(CO)cn3)CCN12 [Example 53, (7S,8aS)-7-(3-([1,2,4]triazolo[1,5-a]pyridin-5-yl)propyl)-2-(5-(hydroxymethyl)pyridin-2-yl)hexahydropyrrolo[1,2-a]pyrazin-6(2H)-one]
< 100 nM	1000 to 10000 nM	100 to 1000 nM	Cn1cnc2cccc(CCC[C@H]3C[C@H]4CN(c5ccc(C#N)cn5)CCN4C3=O)c21 [Example 54, 6-((7S,8aS)-7-(3-(1-methyl-1H-benzo[d]imidazol-7-yl)propyl)-6-oxohexahydropyrrolo[1,2-a]pyrazin-2(1H)-yl)nicotinonitrile]
100 to 1000 nM	1000 to 10000 nM	1000 to 10000 nM	Cn1ncc2cccc(CCC[C@H]3C[C@H]4CN(c5ccc(C#N)cn5)CCN4C3=O)c21 [Example 55, 6-((7S,8aS)-7-(3-(1-methyl-1H-indazol-7-yl)propyl)-6-oxohexahydropyrrolo[1,2-a]pyrazin-2(1H)-yl)nicotinonitrile]
< 100 nM	100 to 1000 nM	100 to 1000 nM	N#Cc1ccc(N2CCN3C(=O)[C@@H](CCCc4cccnn4)C[C@H]3C2)nc1 [Example 56, 6-((7S,8aS)-6-oxo-7-(3-(pyridazin-3-yl)propyl)hexahydropyrrolo[1,2-a]pyrazin-2(1H)-yl)nicotinonitrile]
1000 to 10000 nM	> 10000 nM	1000 to 10000 nM	Cc1nccnc1CCC[C@H]1C[C@H]2CN(c3ccc(C#N)cn3)CCN2C1=O [Example 57, 6-((7S,8aS)-7-(3-(3-methylpyrazin-2-yl)propyl)-6-oxohexahydropyrrolo[1,2-a]pyrazin-2(1H)-yl)nicotinonitrile]
< 100 nM	100 to 1000 nM	100 to 1000 nM	N#Cc1ccc(N2CCN3C(=O)[C@@H](CCCc4cccn5nccc45)C[C@H]3C2)nc1 [Example 58, 6-((7S,8aS)-6-oxo-7-(3-(pyrazolo[1,5-a]pyridin-4-yl)propyl)hexahydropyrrolo[1,2-a]pyrazin-2(1H)-yl)nicotinonitrile]
